Reference: ChEMBL document CHEMBL1140598, “A review of anti-infective and anti-inflammatory chalcones” (Eur J Med Chem, 2007)

System: Mycobacterium tuberculosis variant bovis
Assay: Antibacterial activity against Mycobacterium bovis
Type: functional

## C=CC(C)(C)c1cc(/C=C/C(=O)c2ccc(O)cc2)c(OC)cc1O [LICOAGROCHACONE A]
  MIC: ≤ 20 µg/mL
